Columns and labels:
MOLM13 = test: Cell growth inhibition, CellTiter-Glo Luminescent Cell Viability Assay, MOLM13; format: cell-based; settings: Homo sapiens, MOLM-13, 96 h, MOLM13 cells, 4 days
Protocol: (§1) Cell growth inhibitory activity of representative Compounds of the Disclosure was determined using the CellTiter-Glo® Luminescent Cell Viability Assay. Cells were seeded in 384-well white opaque cell culture plates at a density of 2,000 cells/well with serially diluted compounds and incubated at 37° C. in an atmosphere of 95% air and 5% CO2 for 4 days. Cell viability was determined using the CellTiter-Glo® Luminescent Cell Viability Assay Kit (Promega, Madison, Wis.) according to the manufacture's instruction. Briefly, a volume of CellTiter-Glo® Reagent equal to the volume of cell culture medium was added to each well, and then the plates were incubated at room temperature for 10-20 minutes. The luminescent signal was measured using a Tecan Infinite M1000 multimode microplate reader (Tecan, Morrisville, N.C.). The half maximal inhibitory concentration (IC50) in Table 3 was calculated using the GraphPad Prism 5 software (GraphPad Software, La Jolla, Calif.).

MDA-MB-231 = test: Cell growth inhibition, CellTiter-Glo Luminescent Cell Viability Assay, MDA-MB-231; format: cell-based; settings: Homo sapiens, MDA-MB-231, 96 h, MDA-MB-231 cells, 4 days
Protocol: as §1

Structure (SMILES): Cc1nnc2n1-c1sc(C#Cc3cnn(CCCC(=O)OCCCNc4cccc5c4CN(C4CCC(=O)NC4=O)C5=O)c3)c(Cc3ccccc3)c1COC2 (stereo not drawn) [Cpd. No. 18, 3-((2-(2,6-dioxopiperidin-3-yl)-1-oxoisoindolin-4-yl)amino)propyl 4-(4-((3-benzyl-9-methyl-4H,6H-thieno[2,3-e][1,2,4]triazolo[3,4-c][1,4]oxazepin-2-yl)ethynyl)-1H-pyrazol-1-yl)butanoate]
- IC50 (MOLM13): 7.3 nM

Structure (SMILES): Cc1nnc2n1-c1sc(C#Cc3cnn(CCCOC(=O)CCCCc4cccc5c4CN(C4CCC(=O)NC4=O)C5=O)c3)c(Cc3ccccc3)c1COC2 (stereo not drawn) [compound 19, 3-(4-((3-benzyl-9-methyl-4H,6H-thieno[2,3-e][1,2,4]triazolo[3,4-c][1,4]oxazepin-2-yl)ethynyl)-1H-pyrazol-1-yl)propyl 5-(2-(2,6-dioxopiperidin-3-yl)-1-oxoisoindolin-4-yl)pentanoate]
- IC50 (MOLM13): 7.3 nM

Structure (SMILES): Cc1c(C#Cc2cnn(CCCC(=O)OCCOCCCN3CCC(Nc4cccc5c4CN(C4CCC(=O)NC4=O)C5=O)CC3)c2)sc2c1C(c1ccc(Cl)cc1)=N[C@@H](CC(=O)N1CCN(C)CC1)c1nnc(C)n1-2 (stereo partly drawn) [compound 2, 2-(3-(4-((2-(2,6-dioxopiperidin-3-yl)-1-oxoisoindolin-4-yl)amino)piperidin-1-yl)propoxy)ethyl 4-(4-(((S)-4-(4-chlorophenyl)-3,9-dimethyl-6-(2-(4-methylpiperazin-1-yl)-2-oxoethyl)-6H-thieno[3,2-f][1,2,4]triazolo[4,3-a][1,4]diazepin-2-yl)ethynyl)-1H-pyrazol-1-yl)butanoate]
- IC50 (MOLM13): 7.5 nM
- IC50 (MDA-MB-231): 19.4 nM

Structure (SMILES): Cc1nnc2n1-c1sc(C#Cc3ccn(CCC(=O)OCCCCc4cccc5c4CN(C4CCC(=O)NC4=O)C5=O)n3)c(Cc3ccccc3)c1COC2 (stereo not drawn) [compound 29, 4-(2-(2,6-dioxopiperidin-3-yl)-1-oxoisoindolin-4-yl)butyl 3-(3-((3-benzyl-9-methyl-4H,6H-thieno[2,3-e][1,2,4]triazolo[3,4-c][1,4]oxazepin-2-yl)ethynyl)-1H-pyrazol-1-yl)propanoate]
- IC50 (MOLM13): 0.3 nM
- IC50 (MDA-MB-231): 9.8 nM

Structure (SMILES): Cc1nnc2n1-c1sc(C#Cc3cnn(CCCC(=O)OCCOCCOCCOCCOc4cccc5c4CN(C4CCC(=O)NC4=O)C5=O)c3)c(Cc3ccccc3)c1COC2 (stereo not drawn) [compound 22, 2-(2-(2-(2-((2-(2,6-dioxopiperidin-3-yl)-1-oxoisoindolin-4-yl)oxy)ethoxy)ethoxy)ethoxy)ethyl 4-(4-((3-benzyl-9-methyl-4H,6H-thieno[2,3-e][1,2,4]triazolo[3,4-c][1,4]oxazepin-2-yl)ethynyl)-1H-pyrazol-1-yl)butanoate]
- IC50 (MOLM13): 5.2 nM
- IC50 (MDA-MB-231): 185 nM

Structure (SMILES): Cc1nnc2n1-c1sc(C#Cc3cnn(CCCC(=O)OCCCN4CCN(c5cccc6c5C(=O)N(C5CCC(=O)NC5=O)C6=O)CC4)c3)c(Cc3ccccc3)c1COC2 (stereo not drawn) [compound 24, 3-(4-(2-(2,6-dioxopiperidin-3-yl)-1,3-dioxoisoindolin-4-yl)piperazin-1-yl)propyl 4-(4-((3-benzyl-9-methyl-4H,6H-thieno[2,3-e][1,2,4]triazolo[3,4-c][1,4]oxazepin-2-yl)ethynyl)-1H-pyrazol-1-yl)butanoate]
- IC50 (MOLM13): 17.6 nM

Structure (SMILES): Cc1nnc2n1-c1sc(C#Cc3cnn(CCCC(=O)OCCOCCOCCN4CCC(Nc5cccc6c5CN(C5CCC(=O)NC5=O)C6=O)CC4)c3)c(Cc3ccccc3)c1COC2 (stereo not drawn) [compound 27, 2-(2-(2-(4-((2-(2,6-dioxopiperidin-3-yl)-1-oxoisoindolin-4-yl)amino)piperidin-1-yl)ethoxy)ethoxy)ethyl 4-(4-((3-benzyl-9-methyl-4H,6H-thieno[2,3-e][1,2,4]triazolo[3,4-c][1,4]oxazepin-2-yl)ethynyl)-1H-pyrazol-1-yl)butanoate]
- IC50 (MDA-MB-231): 23.3 nM

Structure (SMILES): Cc1nnc2n1-c1sc(C#Cc3cnn(CCCC(=O)OCCCc4cccc5c4CN(C4CCC(=O)NC4=O)C5=O)c3)c(Cc3ccccc3)c1COC2 (stereo not drawn) [compound 36, 3-(2-(2,6-dioxopiperidin-3-yl)-1-oxoisoindolin-4-yl)propyl 4-(4-((3-benzyl-9-methyl-4H,6H-thieno[2,3-e][1,2,4]triazolo[3,4-c][1,4]oxazepin-2-yl)ethynyl)-1H-pyrazol-1-yl)butanoate]
- IC50 (MOLM13): 4.6 nM

Structure (SMILES): Cc1nnc2n1-c1sc(C#Cc3cnn(CCCC(=O)OCCOCCN4CCC(Nc5cccc6c5CN(C5CCC(=O)NC5=O)C6=O)CC4)c3)c(Cc3ccccc3)c1COC2 (stereo not drawn) [compound 26, 2-(2-(4-((2-(2,6-dioxopiperidin-3-yl)-1-oxoisoindolin-4-yl)amino)piperidin-1-yl)ethoxy)ethyl 4-(4-((3-benzyl-9-methyl-4H,6H-thieno[2,3-e][1,2,4]triazolo[3,4-c][1,4]oxazepin-2-yl)ethynyl)-1H-pyrazol-1-yl)butanoate]
- IC50 (MDA-MB-231): 24.1 nM

Structure (SMILES): Cc1nnc2n1-c1sc(C#Cc3cnn(CC(=O)OCCCOc4cccc5c4CN(C4CCC(=O)NC4=O)C5=O)c3)c(Cc3ccccc3)c1COC2 (stereo not drawn) [compound 37, 3-((2-(2,6-dioxopiperidin-3-yl)-1-oxoisoindolin-4-yl)oxy)propyl 2-(4-((3-benzyl-9-methyl-4H,6H-thieno[2,3-e][1,2,4]triazolo[3,4-c][1,4]oxazepin-2-yl)ethynyl)-1H-pyrazol-1-yl)acetate]
- IC50 (MOLM13): 9.1 nM

Structure (SMILES): Cc1nnc2n1-c1sc(C#Cc3cnn(CCCC(=O)OCCCCc4cccc5c4CN(C4CCC(=O)NC4=O)C5=O)c3)c(Cc3ccccc3)c1COC2 (stereo not drawn) [compound 35, 4-(2-(2,6-dioxopiperidin-3-yl)-1-oxoisoindolin-4-yl)butyl 4-(4-((3-benzyl-9-methyl-4H,6H-thieno[2,3-e][1,2,4]triazolo[3,4-c][1,4]oxazepin-2-yl)ethynyl)-1H-pyrazol-1-yl)butanoate]
- IC50 (MOLM13): 4.9 nM

Structure (SMILES): Cc1nnc2n1-c1sc(C#Cc3cnn(CCCOC(=O)CCCc4cccc5c4CN(C4CCC(=O)NC4=O)C5=O)c3)c(Cc3ccccc3)c1COC2 (stereo not drawn) [compound 20, 3-(4-((3-benzyl-9-methyl-4H,6H-thieno[2,3-e][1,2,4]triazolo[3,4-c][1,4]oxazepin-2-yl)ethynyl)-1H-pyrazol-1-yl)propyl 4-(2-(2,6-dioxopiperidin-3-yl)-1-oxoisoindolin-4-yl)butanoate]
- IC50 (MOLM13): 22.6 nM

Structure (SMILES): Cc1c(C#Cc2cnn(CCCC(=O)OCCOCCOCCN3CCC(Nc4cccc5c4CN(C4CCC(=O)NC4=O)C5=O)CC3)c2)sc2c1C(c1ccc(Cl)cc1)=N[C@@H](CC(=O)N1CCN(C)CC1)c1nnc(C)n1-2 (stereo partly drawn) [compound 14, 2-(2-(2-(4-((2-(2,6-dioxopiperidin-3-yl)-1-oxoisoindolin-4-yl)amino)piperidin-1-yl)ethoxy)ethoxy)ethyl 4-(4-(((S)-4-(4-chlorophenyl)-3,9-dimethyl-6-(2-(4-methylpiperazin-1-yl)-2-oxoethyl)-6H-thieno[3,2-f][1,2,4]triazolo[4,3-a][1,4]diazepin-2-yl)ethynyl)-1H-pyrazol-1-yl)butanoate]
- IC50 (MDA-MB-231): 20.7 nM

Structure (SMILES): Cc1c(C#Cc2cnn(CCCC(=O)OCCOCCN3CCC(Nc4cccc5c4CN(C4CCC(=O)NC4=O)C5=O)CC3)c2)sc2c1C(c1ccc(Cl)cc1)=N[C@@H](CC(=O)N1CCN(C)CC1)c1nnc(C)n1-2 (stereo partly drawn) [compound 13, 2-(2-(4-((2-(2,6-dioxopiperidin-3-yl)-1-oxoisoindolin-4-yl)amino)piperidin-1-yl)ethoxy)ethyl 4-(4-(((S)-4-(4-chlorophenyl)-3,9-dimethyl-6-(2-(4-methylpiperazin-1-yl)-2-oxoethyl)-6H-thieno[3,2-f][1,2,4]triazolo[4,3-a][1,4]diazepin-2-yl)ethynyl)-1H-pyrazol-1-yl)butanoate]
- IC50 (MDA-MB-231): 12.2 nM

Structure (SMILES): Cc1nnc2n1-c1sc(C#Cc3cnn(CC(=O)OCC#Cc4cccc5c4CN(C4CCC(=O)NC4=O)C5=O)c3)c(Cc3ccccc3)c1COC2 (stereo not drawn) [compound 39, 3-(2-(2,6-dioxopiperidin-3-yl)-1-oxoisoindolin-4-yl)prop-2-yn-1-yl 2-(4-((3-benzyl-9-methyl-4H,6H-thieno[2,3-e][1,2,4]triazolo[3,4-c][1,4]oxazepin-2-yl)ethynyl)-1H-pyrazol-1-yl)acetate]
- IC50 (MDA-MB-231): > 100 nM

Structure (SMILES): Cc1c(C#Cc2cnn(CCCC(=O)OCCCOc3cccc4c3CN(C3CCC(=O)NC3=O)C4=O)c2)sc2c1C(c1ccc(Cl)cc1)=N[C@@H](CC(=O)N1CCN(C)CC1)c1nnc(C)n1-2 (stereo partly drawn) [compound 9, 3-((2-(2,6-dioxopiperidin-3-yl)-1-oxoisoindolin-4-yl)oxy)propyl 4-(4-(((S)-4-(4-chlorophenyl)-3,9-dimethyl-6-(2-(4-methylpiperazin-1-yl)-2-oxoethyl)-6H-thieno[3,2-f][1,2,4]triazolo[4,3-a][1,4]diazepin-2-yl)ethynyl)-1H-pyrazol-1-yl)butanoate]
- IC50 (MOLM13): 0.2 nM

Structure (SMILES): Cc1nnc2n1-c1sc(C#Cc3cnn(CC(=O)OCCC#Cc4cccc5c4CN(C4CCC(=O)NC4=O)C5=O)c3)c(Cc3ccccc3)c1COC2 (stereo not drawn) [compound 40, 4-(2-(2,6-dioxopiperidin-3-yl)-1-oxoisoindolin-4-yl)but-3-yn-1-yl 2-(4-((3-benzyl-9-methyl-4H,6H-thieno[2,3-e][1,2,4]triazolo[3,4-c][1,4]oxazepin-2-yl)ethynyl)-1H-pyrazol-1-yl)acetate]
- IC50 (MDA-MB-231): 24.3 nM

Structure (SMILES): Cc1c(C#Cc2cnn(CCCC(=O)OCCOCCOCCOc3cccc4c3CN(C3CCC(=O)NC3=O)C4=O)c2)sc2c1C(c1ccc(Cl)cc1)=N[C@@H](CC(=O)N1CCN(C)CC1)c1nnc(C)n1-2 (stereo partly drawn) [compound 10, 2-(2-(2-((2-(2,6-dioxopiperidin-3-yl)-1-oxoisoindolin-4-yl)oxy)ethoxy)ethoxy)ethyl 4-(4-(((S)-4-(4-chlorophenyl)-3,9-dimethyl-6-(2-(4-methylpiperazin-1-yl)-2-oxoethyl)-6H-thieno[3,2-f][1,2,4]triazolo[4,3-a][1,4]diazepin-2-yl)ethynyl)-1H-pyrazol-1-yl)butanoate]
- IC50 (MOLM13): 4 nM

— US11267822B2, “BET bromodomain protein degraders with cleavable linkers” (THE REGENTS OF THE UNIVERSITY OF MICHIGAN, priority 2017, dated 2022)
